Measurements published in patent US5242783A, “Photographic material and process” (Eastman Kodak Company, priority 1992, dated 1993).

Assay: Deblocking of ester in pH 10.0 carbonate buffer with hydroxylamine (A+C), reaction half-life and rate enhancement
Format: physicochemical
Conditions: for reactivity with hydroxylamine vs comparisons: from Table I; for Ratio of the A+B half-life to the A+C half-life (rate enhancement): pH 10.0, 25° C.
Protocol: Model studies were conducted on esters E-1 through E-6 to determine the possible rate enhancement which could be attained by using a dinucleophile rather than a mononucleophile to promote the removal from a phenolic moiety of a blocking group of this invention. Aqueous solutions A, B, and C, each containing 50% by volume of acetonitrile were prepared as follows (a separate solution A for each ester):
Solution A: 2.5 × 10^-4 M ester (or 2.5 × 10^-5 M E-
Solution B: 25% by volume carbonate buffer
(pH 10.0, ionic strength 0.75);
Solution C: Solution B with added 0.05M
Then equal volumes of A and B (or A and C) were mixed at 25° C. to give a pH 10.0 solution and the reaction was followed by spectrophotometric measurements of the phenol (290 nm) or p-nitrophenol (402 nm) produced with time. In each case a reaction half-life (t1/2) was calculated from the equation t/1/2 =1n(2)/k, where 1n(2) is the natural logarithm of 2 and k is the pseudo first-order rate constant calculated for the reaction. Smaller half-lives thus indicate more rapid reactions. The A+B combination provides an alkaline solution in which the main reactant is hydroxide ion (a mononucleophile) while in the A.C combination the active reactant is hydroxylamine (a dinucleophile). A ratio of the A+B half-life to the A+C half-life provides a measure of rate enhancement due to participation of hydroxylamine in the deblocking reaction.

Ratio of the A+B half-life to the A+C half-life (rate enhancement)	Compound	reactivity with hydroxylamine vs comparisons
3.7 × 10^4	CC(=O)C(C)(C)C(=O)Oc1ccccc1 [Example E-5, reference compound]	–
1.7 × 10^2	CC(=O)CC(C)(C)C(=O)Oc1ccccc1 [Example E-6, reference compound]	–

The remaining lines, values behind:

Compound	Ratio of the A+B half-life to the A+C half-life (rate enhancement)	reactivity with hydroxylamine vs comparisons
CN(C(=O)N1CCC(=O)C(C)(C(=O)Oc2ccc([N+](=O)[O-])cc2)C1)c1ccccc1 (centres unmarked) [Example E-1]	3.8 × 10^4	much more reactive with the dinucleophile hydroxylamine than are the comparisons
COc1ccc(C(=O)N2CCC(=O)C(C)(C(=O)Oc3ccc([N+](=O)[O-])cc3)C2)cc1 (centres unmarked) [Example E-2]	2.9 × 10^4	much more reactive with the dinucleophile hydroxylamine than are the comparisons
CC1(C(=O)Oc2ccc([N+](=O)[O-])cc2)CN(C(=O)OCc2ccc([N+](=O)[O-])cc2)CCC1=O (centres unmarked) [Example E-3]	3.6 × 10^4	–
CC1(C(=O)Oc2ccc([N+](=O)[O-])cc2)CCCCC1=O (centres unmarked) [Example E-4, reference compound]	2.3 × 10^5	–
